Results published in patent publication US4468469A, “Substituted phenylacetic acids and salts as TBP blocking agents in iodothyronine immunoassays” (Miles Laboratories, Inc., priority 1982, dated 1984).
Where “and” joins values, the source holds several entries; their conditions need not be identical. Equal values may be shown once. Read-outs that look alike come from different tables or passages of the source.

Legend:
[1] = tested on: rabbit antiserum to thyroxine / dihydrofolate reductase; test: Enzyme inhibitor-labeled immunoassay for thyroxine in serum; format: biochemical; conditions: 0.5 mM fenclofenac in antibody reagent; for Absorbance Change per Minute: 340 nm
Method: An enzyme inhibitor-labeled immunoassay (U.S. Pat. No. 4,134,792) for thyroxine in serum was conducted using fenclofenac as the TBP blocking agent. Serum standards in 40 μl aliquots containing known concentrations of thyroxine were combined with 0.2 ml of an antibody reagent consisting of 21 μl rabbit antiserum to thyroxine in 1 ml of 0.1M sodium phosphate buffer, pH 6.5, containing 0.3M potassium chloride, 0.05% sodium azide, and 0.5 mM fencolfenac. After a 30 second incubation, to each mixture was added 0.2 ml of a conjugate reagent consisting of 0.63 mg/ml NADPH (0.65 mM), 0.0175 μM of a methotrexate-thyroxine conjugate [prepared as described in the U.S. patent application filed on even date herewith, assigned to the present assignee, entitled "Methotrexate-LabeledIodothyronine Conjugates Ser. No. 318,028, which application is incorporated herein by reference] in 10 mM sodium carbonate buffer, pH 9.5. […] After a further 5 minute incubation, to each mixture was added 50 μl of 2.5 mM dihydrofolate in 0.1M Tris.HCl, pH 8.5. Forty-five (45) seconds later, the absorbance of each solution at 340 nm was read over a 1 minute period.

[2] = Optical absorption spectra; format: physicochemical
[3] = tested on: anti(thyroxine) antiserum / apoglucose oxidase; test: Apoenzyme reactivation immunoassay system for serum thyroxine; format: biochemical; conditions: 2 mM sodium salt of dissociating agent in buffer
Method: Standard curves for serum thyroxine were generated using a semiautomated assay protocol on the Gilford Clinical Chemistry Analyzer System 203-S (Gilford Instrument Laboratories, Oberline, OH, USA). […] The FAD-thyroxine conjugate (40 nM in 0.1M sodium phosphate, pH 7.0, 0.01% Triton X-100) as a 0.05 ml aliquot was added to the reaction cup and allowed to equilibrate for 30 seconds. The reaction was initiated by addition of 0.10 ml 1.0 μM apoglucose oxidase, 2 mM 4-aminoantipyrine, 12% glycerol, 80 mM sodium phosphate, pH 7.0. The absorbance at 520 nm was recorded after an 8 minute incubation.

[4] = tested on: serum proteins (thyroxine binding protein, TBP); test: Dissociation of thyroxine from human serum, first experiment (Sephadex LH-20 column, pH 6.5)
Method: Approximately 3 milliliters (ml) of human serum was allowed to equilibrate with radioactive iodine-labeled thyroxine (^125 I-thyroxine obtained from Amersham-Searle, Arlington Heights, Ill., USA) for about 8 hours.
Then 100 microliter (μl) aliquots of this serum were combined with 300 μl aliquots of 0.1 molar (M) sodium phosphate buffer, pH 6.5, containing various concentrations of fenclofenac (British Pat. No. 1,308,327; example 6). Then 180 μl aliquots of each of these mixtures were applied to 2 ml columns of Sephadex LH-20 (Pharmacia Fine Chemicals, Piscataway, N.J. USA) equilibrated with 0.1M sodium phosphate buffer, pH 6.5. The radioactivity on the columns was measured and the columns were washed with 5 ml of the buffer. The radioactivity of each column was measured again and the results (shown below in Table 1) used as estimates of thyroxine dissociated from serum proteins.

apoglucose oxidase = apoglucose oxidase (Aspergillus niger, UniProt P13006); test: Activation of apoglucose oxidase by FAD-thyroxine conjugate; format: biochemical; conditions: 5.5 min, pH 7; for activity at 160 µM: 0.16 mM fenclofenac; for activity at 310 µM: 0.31 mM fenclofenac; for activity at 630 µM: 0.63 mM fenclofenac; for activity at 1250 µM: 1.25 mM fenclofenac; for activity at 2500 µM: 2.5 mM fenclofenac; for activity at 5000 µM: 5.0 mM fenclofenac; for activity at 10000 µM: 10.0 mM fenclofenac
Chain of apoglucose oxidase (P13006 17-605): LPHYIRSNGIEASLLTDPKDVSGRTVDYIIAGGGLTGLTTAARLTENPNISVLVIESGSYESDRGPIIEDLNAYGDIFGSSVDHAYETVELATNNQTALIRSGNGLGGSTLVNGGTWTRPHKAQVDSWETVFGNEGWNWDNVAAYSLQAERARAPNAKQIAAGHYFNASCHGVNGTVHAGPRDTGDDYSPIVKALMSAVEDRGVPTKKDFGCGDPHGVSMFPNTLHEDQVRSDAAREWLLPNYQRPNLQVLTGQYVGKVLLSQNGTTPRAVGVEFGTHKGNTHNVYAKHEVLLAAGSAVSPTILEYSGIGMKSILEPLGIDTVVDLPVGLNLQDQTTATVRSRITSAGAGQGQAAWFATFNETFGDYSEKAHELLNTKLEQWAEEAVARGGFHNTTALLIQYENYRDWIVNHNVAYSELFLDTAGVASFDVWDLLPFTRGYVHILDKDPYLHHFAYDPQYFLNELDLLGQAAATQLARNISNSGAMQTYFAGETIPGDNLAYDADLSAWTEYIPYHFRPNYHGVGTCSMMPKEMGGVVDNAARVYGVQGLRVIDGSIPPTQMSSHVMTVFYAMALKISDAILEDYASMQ
Method: In a second study, the effect of fenclofenac on the activation of apoglucose oxidase by an FAD-iodothyronine (T-4) conjugate was investigated. The activation of apoglucose oxidase was set up with different concentrations of fenclofenac and performed at 37° C. To two sets of assays containing 96 mM sodium phosphate, pH 7.0, 95 mM glucose, 1.0 mM sodium dichlorohydroxybenzene sulfonate (DHSA), 19 μg/ml peroxidase and various concentrations of sodium fenclofenac were added apoglucose oxidase, 4-aminoantipyrine, and anti(glucose oxidase) at final concentrations of 100 nM, 100 μM, 5 μl/ml respectively or 2.1 nM final concentration of an FAD-thyroxine conjugate. After preincubating the assay media for 5 min at 37° C. the FAD-thyroxine conjugate or the apoglucose oxidase reagent was added to the appropriate assay set. The absorbance at 520 nm was recorded after a 330 second incubation. The data are presented as a percentage of the absorbance recorded when no fenclofenac is present.

[5] = tested on: serum proteins (thyroxine binding protein, TBP); test: Effect of pH on the dissociation of iodothyronine from serum proteins; set-up: species or system human; conditions: for Percent Dissociated: dissociating agent 2.0 mM
Method: Radioactive iodine labeled thyroxine (^125 I-thyroxine obtained from Amersham-Searle, Arlington Heights, IL, USA) was equilibrated with 5 ml of normal human serum for 48 hours at 4° C. […] After 5 minutes of incubation at room temperature, a 165 μl aliquot was applied to a Sephadex® column from a Seralute® thyroxine assay kit (Miles Laboratories, Inc., Ames Division, Elkhart, IN, USA), which had been equilibrated with 0.1M sodium phosphate, pH 7.0. The total radioactivity applied to the columns was measured and the undissociated material was washed through the column with 3 ml of buffer. The columns were counted to determine the percentage of thyroxine dissociated from the serum proteins.
Using the column procedure described in the second study in Example 1, the pH of the 0.1M sodium phosphate was varied and the concentration of the dissociating agent held constant at 2.0 mM. The columns were equilibrated with buffer containing the dissociating agent at the given pH and 165 μl of the serum diluted in buffer at the given pH (as described above) was applied to the column. The total counts were measured and then the columns were washed with buffer at the given pH. The counts remaining on the column represent the percentage of iodothyronine dissociated.

[6] = read-out: percentage of the absorbance at 520 nm without fenclofenac, Started with Apoenzyme Addition
[7] = read-out: percentage of the absorbance at 520 nm without fenclofenac, Started with Conjugate Addition

O=C(O)Cc1ccccc1Oc1ccc(Cl)cc1Cl [Fenclofenac, 2-(2,4-dichlorophenoxy)phenylacetic acid]
interference with the spectrophotometric response at 340 nm or the enzymatic reaction [1]: did not substantially interfere
Absorbance Change per Minute ([1]; thyroxine standard 0 μg/dL): 0.1682
Absorbance Change per Minute ([1]; thyroxine standard 1.0 μg/dL): 0.1659
Absorbance Change per Minute ([1]; thyroxine standard 2.5 μg/dL): 0.1648
Absorbance Change per Minute ([1]; thyroxine standard 10. μg/dL): 0.1571
Absorbance Change per Minute ([1]; thyroxine standard 20. μg/dL): 0.1498
optical absorption above 300 nm ([2]; 0.5 mM solution in 0.1M sodium phosphate buffer, pH 6.5): no significant absorption above 300 nanometers
visible color of solution ([2]; 50 mM solution in dilute sodium hydroxide): no visible color
λmax ([2]; in 0.1M sodium hydroxide): 275 nanometers and 269 nanometers
λmin ([2]; in 0.1M sodium hydroxide): 257 nanometers
ε max (NaOH), extinction coefficient ([2]; in 0.1M sodium hydroxide, at λmax): 2060 M⁻¹ cm⁻¹ and 2050 M⁻¹ cm⁻¹
ε min (NaOH), extinction coefficient ([2]; in 0.1M sodium hydroxide, at λmin): 1520 M⁻¹ cm⁻¹
Absorbance (520 nm) ([3]; Thyroxine Standard 0 μg/L): 0.797
Absorbance (520 nm) ([3]; Thyroxine Standard 25 μg/L): 0.823
Absorbance (520 nm) ([3]; Thyroxine Standard 75 μg/L): 0.893
Absorbance (520 nm) ([3]; Thyroxine Standard 125 μg/L): 0.965
Absorbance (520 nm) ([3]; Thyroxine Standard 200 μg/L): 1.078
Percent Thyroxine Dissociated ([4]; 0.25 mM fenclofenac): 50%
Percent Thyroxine Dissociated ([4]; 0.50 mM fenclofenac): 72%
Percent Thyroxine Dissociated ([4]; 1.0 mM fenclofenac): 79%
Percent Thyroxine Dissociated ([4]; 2.0 mM fenclofenac): 98%
Percent Thyroxine Dissociated ([4]; 5.0 mM fenclofenac): 100%
activity at 160 µM (apoglucose oxidase; [6]): 100%
activity at 160 µM (apoglucose oxidase; [7]): 97%
activity at 310 µM (apoglucose oxidase; [6]): 98%
activity at 310 µM (apoglucose oxidase; [7]): 92%
activity at 630 µM (apoglucose oxidase; [6]): 97%
activity at 630 µM (apoglucose oxidase; [7]): 94%
activity at 1250 µM (apoglucose oxidase; [6]): 93%
activity at 1250 µM (apoglucose oxidase; [7]): 95%
activity at 2500 µM (apoglucose oxidase; [6]): 90%
activity at 2500 µM (apoglucose oxidase; [7]): 85%
activity at 5000 µM (apoglucose oxidase; [6]): 78%
activity at 5000 µM (apoglucose oxidase; [7]): 74%
activity at 10000 µM (apoglucose oxidase; [6]): 53%
activity at 10000 µM (apoglucose oxidase; [7]): 54%
inhibition at 2000 µM (apoglucose oxidase; about 2 mM fenclofenac, FAD-thyroxine conjugate, read-out: colorimetric response diminished): 8 to 10%
pH dependence of the dissociation of iodothyronine from serum proteins ([5]; over the range pH 6.0-8.0, 2.0 mM): independent of pH
Percent Dissociated ([5]; pH 6.0): 84%
Percent Dissociated ([5]; pH 6.5): 84%
Percent Dissociated ([5]; pH 7.0): 86%
Percent Dissociated ([5]; pH 7.5): 85%
Percent Dissociated ([5]; pH 8.0): 83%
